Assay results reported in ChEMBL document CHEMBL1130609, “2-Pyridinyl-3-(4-methylsulfonyl)phenylpyridines: selective and orally active cyclooxygenase-2 inhibitors” (Bioorg Med Chem Lett, 1998).

Key:
[1] = target: T1, Prostaglandin G/H synthase 2 (Homo sapiens, UniProt P35354)
T1 sequence (P35354 whole entry): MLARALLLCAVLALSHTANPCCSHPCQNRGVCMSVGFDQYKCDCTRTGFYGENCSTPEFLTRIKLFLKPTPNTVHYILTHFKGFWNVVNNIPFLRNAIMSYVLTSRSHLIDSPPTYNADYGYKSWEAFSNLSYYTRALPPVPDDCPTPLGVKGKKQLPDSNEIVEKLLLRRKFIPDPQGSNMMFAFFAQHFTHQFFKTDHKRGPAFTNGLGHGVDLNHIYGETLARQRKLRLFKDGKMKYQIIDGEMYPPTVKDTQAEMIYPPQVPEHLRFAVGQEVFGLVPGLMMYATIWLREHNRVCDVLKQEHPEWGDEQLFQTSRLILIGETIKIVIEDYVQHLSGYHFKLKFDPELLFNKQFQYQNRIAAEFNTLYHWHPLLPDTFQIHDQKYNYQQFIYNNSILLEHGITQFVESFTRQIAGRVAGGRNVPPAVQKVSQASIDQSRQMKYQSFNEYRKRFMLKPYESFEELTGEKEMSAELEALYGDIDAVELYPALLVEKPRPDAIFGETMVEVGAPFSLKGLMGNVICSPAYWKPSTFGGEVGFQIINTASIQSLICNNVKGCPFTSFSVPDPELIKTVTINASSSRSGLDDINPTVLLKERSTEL
Description: Inhibition of Prostaglandin G/H synthase 2 was measured by the inhibition of PGE-2 produced by lipopolysaccharide-challenged HWB

[2] = target: Prostaglandin G/H synthase 1 (Homo sapiens, UniProt P23219); experiment: Inhibition of Prostaglandin G/H synthase 1 was measured by the inhibition of PGE-2 produced by microsomes from U937 cells at subsaturating arachidonic acid conc.; type: cell-based, U-937
Prostaglandin G/H synthase 1, sequence (P23219 whole entry): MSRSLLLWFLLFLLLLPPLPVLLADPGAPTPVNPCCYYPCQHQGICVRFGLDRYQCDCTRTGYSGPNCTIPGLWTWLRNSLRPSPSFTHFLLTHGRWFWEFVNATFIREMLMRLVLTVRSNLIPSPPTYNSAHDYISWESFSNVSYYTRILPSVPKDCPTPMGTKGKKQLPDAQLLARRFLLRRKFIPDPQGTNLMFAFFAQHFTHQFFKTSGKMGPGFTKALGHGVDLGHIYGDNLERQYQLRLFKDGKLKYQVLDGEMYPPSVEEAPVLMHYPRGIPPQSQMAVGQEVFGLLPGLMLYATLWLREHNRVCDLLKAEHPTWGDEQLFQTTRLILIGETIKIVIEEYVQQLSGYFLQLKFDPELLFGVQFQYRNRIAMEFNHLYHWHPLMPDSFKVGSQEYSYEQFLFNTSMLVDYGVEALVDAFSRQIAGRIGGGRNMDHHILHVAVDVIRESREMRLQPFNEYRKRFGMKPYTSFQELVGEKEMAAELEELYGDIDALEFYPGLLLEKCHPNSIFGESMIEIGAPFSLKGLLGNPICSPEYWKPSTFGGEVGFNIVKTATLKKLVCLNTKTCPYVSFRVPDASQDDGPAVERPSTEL

[3] = target: T1, Prostaglandin G/H synthase 2; experiment: In vitro inhibition of PGE-2 produced by arachidonic acid-stimulated CHO cells stably expressing human Prostaglandin G/H synthase 2
[4] = system: Rattus norvegicus; experiment: In vivo potency at 10 mg/kg in the rat paw edema assay; type: functional
[5] = Compound was evaluated for plasma concentration in rats when administered at 20 mg/kg in methocel at 2 hr; type: ADME, organism-based; design: dose 20 mg/kg; settings: rat, read-out: Cmax
[6] = system: Rattus norvegicus; experiment: Efficacy in rat pyresis assay upon oral administration; type: functional
[7] = system: Rattus norvegicus; experiment: Efficacy in rat paw edema assay upon oral administration.; type: functional
[8] = Compound was evaluated for plasma concentration in rats when administered at 20 mg/kg in methocel at 0.5 hr; type: ADME, organism-based; design: dose 20 mg/kg; settings: rat, read-out: Cmax
[9] = system: Rattus norvegicus; experiment: In vivo potency at 20 mg/kg in the rat paw edema assay; type: functional
[10] = Compound was evaluated for plasma concentration in rats when administered at 20 mg/kg in methocel at 1 hr; type: ADME, organism-based; design: dose 20 mg/kg; settings: rat, read-out: Cmax
[11] = system: Rattus norvegicus; experiment: In vivo inhibitory dose in adjuvant-induced arthritis in rats; type: functional
[12] = system: Rattus norvegicus; experiment: Compound was evaluated for efficacy in rat paw edema assay upon oral administration; type: functional
[13] = system: Rattus norvegicus; experiment: In vivo inhibitory dose in carrageenan-induced hyperalgesia in rats; type: functional; settings: read-out: ID50 (the source's name)

| IC50 [1] | IC50 [2] | IC50 [3] | SMILES | ED50 [6] | ED50 [7] | other results |
| --- | --- | --- | --- | --- | --- | --- |
| 2100 nM | 59000 nM | 350 nM | Cc1cnc(-c2cccnc2)c(-c2ccc(S(C)(=O)=O)cc2)c1 |  |  |  |
| > 33000 nM | > 100000 nM | 610 nM | CS(=O)(=O)c1ccc(-c2cccnc2-c2cccnc2)cc1 |  |  |  |
| 2700 nM | > 100000 nM | 830 nM | Cc1ccncc1-c1ncc(Cl)cc1-c1ccc(S(C)(=O)=O)cc1 |  |  |  |
|  | 31000 nM |  | CS(=O)(=O)c1ccc(-c2cc(C(F)(F)F)cnc2-c2cccnc2)cc1 | 1.4 mg/kg | 1.7 mg/kg | concentration at 2 h [5]: 24 µM |
|  | 81000 nM |  | CS(=O)(=O)c1ccc(-c2cc(Cl)cnc2-c2ccncc2)cc1 |  |  |  |
| 900 nM | 19000 nM | 34 nM | CS(=O)(=O)c1ccc(-c2cc(Cl)cnc2-c2cccnc2)cc1 | 0.8 mg/kg | 2.3 mg/kg | concentration at 2 h [5]: 52 µM |
| 3800 nM | > 100000 nM | 87 nM | Cc1cncc(-c2ncc(Cl)cc2-c2ccc(S(C)(=O)=O)cc2)c1 |  |  |  |
| 2600 nM | 45000 nM | 1330 nM | Cc1ncccc1-c1ncc(Cl)cc1-c1ccc(S(C)(=O)=O)cc1 |  |  |  |
|  | 12000 nM |  | Cc1ccc(-c2ncc(Cl)cc2-c2ccc(S(C)(=O)=O)cc2)cn1 [ETORICOXIB] | 0.5 mg/kg | 0.6 mg/kg | concentration at 1 h [10]: 30 µM |

The remaining lines, values behind:

| SMILES | IC50 [1] | IC50 [2] | IC50 [3] | ED50 [6] | ED50 [7] | other results |
| --- | --- | --- | --- | --- | --- | --- |
| COc1nc(-c2ccc(F)cc2)c(-c2ccc(S(C)(=O)=O)cc2)cc1C#N |  |  |  |  |  | inhibition in vivo at 10 mg/kg [4]: 16% |
| Cc1ccc(-c2ncc(Cl)cc2-c2ccc(S(N)(=O)=O)cc2)cn1 | 2400 nM | 800 nM | 23 nM |  |  |  |
| CS(=O)(=O)c1ccc(-c2cc(Cl)cnc2-c2ccccn2)cc1 | 5800 nM | 63000 nM | 68 nM |  |  |  |
| CS(=O)(=O)c1ccc(-c2cc(Cl)cnc2-c2ccc(C3CC3)nc2)cc1 |  | 6000 nM | 16 nM | 4.9 mg/kg | 2 mg/kg | concentration at 2 h [5]: 9 µM |
| CCc1ccc(-c2ncc(Cl)cc2-c2ccc(S(C)(=O)=O)cc2)cn1 |  | 13000 nM |  | 2.6 mg/kg | 1.6 mg/kg | concentration at 0.5 h [8]: 9 µM |
| COc1cc(-c2ccc(S(C)(=O)=O)cc2)c(-c2ccc(F)cc2)c(C(F)(F)F)n1 |  |  |  |  |  | inhibition in vivo at 20 mg/kg [9]: 12% |
| CS(=O)(=O)c1ccc(-c2cccnc2-c2ccccc2)cc1 |  | 20000 nM |  |  | > 10 mg/kg | concentration at 0.5 h [8]: 40 µM |
| CS(=O)(=O)c1ccc(-c2cc(Br)sc2-c2ccc(F)cc2)cc1 [DUP-697] |  |  |  |  | 1.3 mg/kg |  |
| COc1ccc2c(c1)c(CC(=O)O)c(C)n2C(=O)c1ccc(Cl)cc1 [INDOMETHACIN] |  |  |  | 1.1 mg/kg |  | ID50 [11]: 0.2 mg kg-1 day-1 b.i.d.; ED50 [12]: 2 mg/kg; ED50 [13]: 1.5 mg/kg |
